Key:
[1] = plasma glucose and cholesterol in normal mice fed the compounds (Example 19); assay type: in vivo, ddY male mice; conditions: 0.1% in diet, one week, n=10; for total cholesterol in plasma: control 135.9 ± 4.8; for plasma glucose: control 271.6 ± 0.4
Procedure: Five-week-old ddY male mice (n=10) were given for one week a diet (CE-2 from Nippon Crea Co., Ltd.) containing 0.1% of the sample compounds of the present invention indicated in Table 1. Blood was then withdrawn from the heart and the glucose and cholesterol levels in plasma were measured.

[2] = system: Ehrlich ascites tumor; experiment: life span of mice with Ehrlich ascites tumor (Example 22); assay type: in vivo, ddY male mice; conditions: 2 mg i.p. once a day for 7 days; for Days survived: n=8, control 15.5 ± 2.12; for T/0 (%): control 100
Procedure: 10^6 Cells of Ehrlich ascites tumor were transplanted in five-week-old ddY male mice and from the 24th hour onward, they were injected intraperitoneally the compounds indicated in Table 4 of the present invention once a day for 7 consecutive days. Each injection contained 2 mg of the test compounds. The efficacy of the compounds is indicated in Table 4 in terms of their life span.

[3] = system: streptozotocin diabetic ddY mice; experiment: streptozotocin-diabetic mice, diet with 0.1% compound (Example 21); assay type: in vivo, ddY male mice
Procedure: Five-week-old ddY male mice were injected intraperitoneally with 130 mg/kg of streptozotocin. […] Each group was allowed to take the diet and drink water freely. One week later, the levels of glucose, insulin, free fatty acid in serum and glycogen in liver were measured.

[4] = system: streptozotocin diabetic ddY mice; experiment: streptozotocin-diabetic mice, plasma glucose and lipid (Example 26); assay type: in vivo, ddY male mice
Procedure: Five-week-old ddY male mice […] were injected intraperitoneally 150 mg/kg of streptozotocin, and after 24 hours onward, they were given for one week a diet (CE-2 from Nippon Crea Co., Ltd.) containing 0.05% of 4-O-nicotinoyl ascochlorin. A control group was given only CE-2. On the 7th day, the animals were sacrificed and the levels of glucose and lipid in their plasma were measured.

[5] = system: Hereditary obese diabetic mice C 57BL/Ksj (db^+ /db^+); experiment: hereditary obese diabetic mice, diet with 0.05% compound, intake and urine (Example 24); assay type: in vivo, mouse
Procedure: Hereditary obese diabetic mice C 57BL/Ksj (db^+ /db^+), 12 weeks old, were fed commercial pellet diet (CE-2 from Nippon Crea Co., Ltd.) for a week and they were treated with CE-2 pellet containing 0.05% of 4-O-nicotinoylascochlorin for a week. The daily amounts of the diet intake, drinking water, urine volume and urine glucose excreted were measured before and during the treatment.

[6] = serum lipid and glucose in normal mice fed the compounds (Example 25); assay type: in vivo, ddY male mice
Procedure: Five-week-old ddY male mice were given for one week a diet (CE-2 from Nippon Crea Co., Ltd.) containing 0.05% of the compounds of the present invention indicated in Table 7. On the 7th day, the mice were sacrificed and the levels of lipid and glucose in their serum were measured.

[7] = system: Hereditary obese diabetic mice C57BL/Ksj (db^+ /db^+); experiment: hereditary obese diabetic mice, plasma glucose and lipid (Example 27); assay type: in vivo, mouse
Procedure: Hereditary obese diabetic mice C57BL/Ksj (db^+ /db^+) were given for one week a diet (CE-2 from Nippon Crea Co., Ltd.) containing 0.05% of 4-O-nicotinoyl ascochlorin. A control group of the same age was given only CE-2. One week later, the animals were sacrificed and the levels of plasma glucose and lipid were measured.

[8] = system: hepatic lipogenesis in streptozotocin-diabetic mice; experiment: hepatic lipogenesis in streptozotocin-diabetic mice; assay type: in vivo; conditions: oral, a week; untreated diabetic controls one half of normal
From the text: Potentiation of insulin action by the compounds of the present invention is corroborated by restoration of hepatic lipogenesis in streptozotocin-diabetic mice. Streptozotocin diabetic mice greatly deteriolate hepatic lipogenesis due to insulin deficiency.

CCOC(=O)COc1c(Cl)c(C)c(C=O)c(O)c1C/C=C(C)/C=C/C1(C)C(C)CCC(=O)C1C (stereo not drawn) [Example 1, 4-O-ethoxycarbonylmethylated ascochlorin]
total cholesterol in plasma [1]: 105.7 ± 3.0 mg/dL | plasma glucose [1]: 208.3 ± 13.1 mg/dL | Days survived [2]: 19.3 ± 5.77 days | T/0 (%) [2]: 125% | serum immunoreactive insulin ([3]; 0.1% in diet, one week, n=10, control 42.67 ± 4.61): 26.60 ± 2.78 μU/ml | serum free fatty acid ([3]; 0.1% in diet, one week, n=10, control 44.29 ± 2.05): 30.44 ± 1.22 mg/dL | serum glucose ([3]; 0.1% in diet, one week, n=10, control 337.7 ± 23.0): 250.6 ± 26.2 mg/dL | body weight after feeding ([3]; 0.1% in diet, one week, before feeding 25.5 ± 0.4, control after feeding 28.0 ± 0.5, ns): 27.0 ± 0.6 g/mouse | serum free fatty acid, change ([3]; vs control): -31.3% | serum glucose, change ([3]; vs control): -25.8% | serum immunoreactive insulin, change ([3]; vs control): -37.7%

CCOC(=O)C(C)Oc1c(Cl)c(C)c(C=O)c(O)c1C/C=C(C)/C=C/C1(C)C(C)CCC(=O)C1C (stereo not drawn) [Example 5, 4-O-(1-ethoxycarbonylethyl) ester of ascochlorin]
total cholesterol in plasma [1]: 109.7 ± 5.0 mg/dL | plasma glucose [1]: 205.7 ± 8.2 mg/dL | Days survived [2]: > 19.1 ± 1.97 days | T/0 (%) [2]: 123%

CCOC(=O)CCCOc1c(Cl)c(C)c(C=O)c(O)c1C/C=C(C)/C=C/C1(C)C(C)CCC(=O)C1C (stereo not drawn) [Example 8, 4-O-(3-ethoxycarbonyl)propyl ester of ascochlorin]
total cholesterol in plasma [1]: 115.0 ± 6.6 mg/dL | plasma glucose [1]: 255.5 ± 17.0 mg/dL

CC(/C=C/C1(C)C(C)CCC(=O)C1C)=C\Cc1c(O)c(C=O)c(C)c(Cl)c1OC(C)C(=O)O (stereo not drawn) [Example 9]
total cholesterol in plasma [1]: 106.7 ± 5.5 mg/dL | plasma glucose [1]: 210.0 ± 10.7 mg/dL | Days survived [2]: > 28.8 ± 3.54 days | T/0 (%) [2]: 186%

CC(/C=C/C1(C)C(C)CCC(=O)C1C)=C\Cc1c(O)c(C=O)c(C)c(Cl)c1OCCCC(=O)O (stereo not drawn) [Example 10]
total cholesterol in plasma [1]: 115.7 ± 5.0 mg/dL | plasma glucose [1]: 220.1 ± 6.8 mg/dL | Days survived [2]: 19.3 ± 10.12 days | T/0 (%) [2]: 125%

CC(/C=C/C1(C)C(C)CCC(=O)C1C)=C\Cc1c(O)c(C=O)c(C)c(Cl)c1OC(=O)c1cccnc1 (stereo not drawn) [Example 11, 4-O-nicotinoyl ascochlorin]
blood glucose and plasma triglyceride (in words) ([4]; 0.05% in diet, one week): could inhibit significantly the increase in the levels of blood glucose and triglyceride in plasma | free aliphatic acid in plasma ([4]; 0.05% in diet, one week, control 22.4 ± 1.4): 20.5 ± 1.2 mg/dL | plasma glucose ([4]; 0.05% in diet, one week, control 453.6 ± 38.0): 351.3 ± 23.0 mg/dL | free aliphatic acid in plasma, change ([4]; vs control): -8% | plasma glucose, change ([4]; vs control): -23% | polydipsia, polyuria and urine glucose excretion (in words) ([5]; 0.05% in diet, one week): improved polydipsis and polyurea and inhibited excretion of urine gluclose | urine volume ([5]; 0.05% in diet, one week, n=5, control period 8.60 ± 0.35): 5.20 ± 0.36 ml/mouse/day | drinking water ([5]; 0.05% in diet, one week, n=5, control period 14.55 ± 0.33): 11.16 ± 0.52 ml/mouse/day | urine glucose concentration ([5]; 0.05% in diet, one week, n=5, control period 130.6 ± 5.7): 106.3 ± 2.9 mg/mL | urine glucose ([5]; 0.05% in diet, one week, n=5, control period 1129 ± 96): 554 ± 43 mg/mouse/day | diet intake ([5]; 0.05% in diet, treatment period one week, n=5, control period 4.85 ± 0.06, NS): 4.26 ± 0.39 g/mouse/day | drinking water, change ([5]; vs control period): -23.30% | urine glucose concentration, change ([5]; vs control period): -18.6% | urine glucose, change ([5]; vs control period): -50.9% | urine volume, change ([5]; vs control period): -39.5% | lipid level in serum (in words) ([6]; 0.05% in diet, one week): could also reduce the lipid level in serum | free fatty acid in serum ([6]; 0.05% in diet, one week, n=8, control 25.3 ± 1.62): 21.2 ± 0.62 mg/dL | neutral fat in serum ([6]; 0.05% in diet, one week, n=8, control 134.7 ± 8.6): 102.0 ± 10.5 mg/dL | total cholesterol in serum ([6]; 0.05% in diet, one week, n=8, control 135.9 ± 4.8): 106.7 ± 5.5 mg/dL | serum glucose ([6]; 0.05% in diet, one week, n=8, control 293.0 ± 13.3): 228.0 ± 16.8 mg/dL | free fatty acid in serum, change ([6]; vs control): -16.3% | neutral fat in serum, change ([6]; vs control): -24.3% | serum glucose, change ([6]; vs control): -22.2% | total cholesterol in serum, change ([6]; vs control): -21.5% | plasma lipid and glucose levels (in words) ([7]; 0.05% in diet, one week): could reduce significantly the high plasma lipid and glucose levels | plasma free fatty acid ([7]; 0.05% in diet, one week, n=7, control 27.7 ± 1.8): 26.1 ± 1.4 mg/dL | plasma triglyceride ([7]; 0.05% in diet, one week, n=7, control 170.7 ± 16.3): 115.5 ± 14.9 mg/dL | immunoreactive insulin in plasma ([7]; 0.05% in diet, one week, n=7, control 236.6 ± 91.0): 257.3 ± 91.3 μU/ml | plasma glucose ([7]; 0.05% in diet, one week, n=7, control 453.6 ± 38.0): 351.3 ± 23.0 mg/dL | plasma glucose, change ([7]; vs control): -23% | plasma triglyceride, change ([7]; vs control): -32.3% | incorporation of acetate into hepatic total fatty acid and triglyceride [8]: restored to normal control levels
